Source: patent publication US6914053B2, “Adenosine A3 receptor agonists” (CV Therapeutics, Inc., priority 2002, dated 2005)

What was measured:
[1] = target: T1, A3 AdoRs (Homo sapiens, UniProt P0DMS8); assay: Radioligand binding competition with 125I-AB-MECA on membranes of transfected cells; details: competition with 0.2 nM 125I-AB-MECA, membranes of HEK-A3 or CHO-A3, TEM buffer, 90 minutes
T1 construct: expressed in transfected cells; host or cells: HEK-293 or CHO cells (HEK-A3 or CHO-A3), membranes
T1 sequence (P0DMS8 1-318): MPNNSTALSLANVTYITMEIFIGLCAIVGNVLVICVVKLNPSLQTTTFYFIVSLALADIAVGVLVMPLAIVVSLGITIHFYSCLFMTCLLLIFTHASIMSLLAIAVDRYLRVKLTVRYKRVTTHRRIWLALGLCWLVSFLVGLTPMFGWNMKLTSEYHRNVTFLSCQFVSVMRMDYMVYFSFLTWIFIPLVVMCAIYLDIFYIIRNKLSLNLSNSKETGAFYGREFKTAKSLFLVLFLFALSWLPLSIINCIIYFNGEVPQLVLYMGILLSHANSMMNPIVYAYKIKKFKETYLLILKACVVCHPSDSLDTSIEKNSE
Protocol: Stable transfection of HEK-293 or CHO cells. The cDNAs for human A1, A2A, A2B or A3 AdoRs were prepared by RT-PCR from total RNA of human cells or tissues and sequenced on both strands. The expression vector containing each of these cDNAs and a second vector containing a neomycin or puromycin-resistance gene were introduced to HEK-293 or CHO cells by Lipofectin-Plus (Life Technology). Colonies were selected by growing transfected cells in the presence of neomycin or puromycin. Stably transfected cells were maintained in Dulbecco's modified Eagle's medium (DMEM) or F-12 medium with 10% fetal bovine serum, 100 μg/ml penicillin, 100 μg/ml streptomycin and appropriate concentrations of neomycin or puromycin. These stably transfected cells were referred to as HEK-“AdoR” or CHO-“AdoR” depending on the receptors that they express. For example, cells that were transfected with A3 AdoRs were referred to as HEK-A3 or CHO-A3.
Membrane preparation. Monolayers of transfected cells were washed with phosphate buffered saline (PBS) and harvested in a buffer containing 10 mM HEPES (pH 7.4), 10 mM EDTA and protease inhibitors. The cells were homogenized in polytron for 1 minute at setting 4 and centrifuged at 29000 g for 15 minutes at 4° C. The cell pellets were washed with a buffer containing 10 mM HEPES (pH7.4), 1 mM EDTA and protease inhibitors, and were resuspended in the same buffer supplemented with 10% sucrose. Frozen aliquots were kept at −80° C.
Radioligand binding. The affinities of compounds for A1, A2A, A2B or A3 AdoRs were determined in competition studies using radioligands such as ^3H—CPX (A1 antagonist), or ^3H-CCPA (A1 agonist), ^3H-ZM214385 (A2A antagonist) or ^3H-CGS21680 (A2A agonist), ^3H-ZM214385 (A2B antagonist) or ^125I-AB-MECA (A3 agonist) and membranes of corresponding transfected cells. For example, to determine the affinity for A3 AdoRs, the competition assays were started by mixing 0.2 nM ^125I-AB-MECA with various concentrations of test compounds and 25 ug membrane proteins of HEK-A3 or CHO-A3 in TEM buffer (50 mM Tris, 1 mM EDTA and 10 mM MgCl2) supplemented with 1 U/ml adenosine deaminase. The assays were incubated for 90 minutes, stopped by filtration onto GF/B filter plates using Packard Harvester and washed four times with ice-cold TM buffer (10 mM Tris, 1 mM MgCl2, pH 7.4). The amounts of radioligands that bound to the GF/B filter plates were determined by scintillation counting. Nonspecific binding was determined in the presence of 10 μM R—PIA or 1 μM IB-MECA. Bmax and KD values were calculated using GraphPad software.

For `CCCCCc1ccc(C#Cc2nc(NOC)c3ncn([C@@H]4O[C@H](CO)[C@@H](O)[C@H]4O)c3n2)cc1` [(4S,2R,3R,5R)-5-hydroxymethyl)-2-{6-(methoxyamino-2-[2-(4-pentylphenylethynyl)]purin-9-yl}oxolane-3,4-diol], the Ki [1] was 388 pM.

For `CONc1nc(C#Cc2ccc(C)cc2)nc2c1ncn2[C@@H]1O[C@H](CO)[C@@H](O)[C@H]1O` [(4S,2R,3R,5R)-5-(hydroxymethyl)-2-[6-(methoxyamino)-2-[(2-(4-methylphenyl)ethynyl]-purin-9-yl]oxolane-3,4-diol], the Ki [1] was 331 pM.

`CONc1nc(C#Cc2ccc(F)cc2)nc2c1ncn2[C@@H]1O[C@H](CO)[C@@H](O)[C@H]1O` [(4S,2R,3R,5R)-2-{2-[2-(4-fluorophenyl)ethynyl}-6-(methoxyamino)purin-9-yl}-5-(hydroxymethyl)oxolane-3,4-diol] showed a Ki [1] of 422 pM.

`CCCCC#Cc1nc(NOC)c2ncn([C@@H]3O[C@H](CO)[C@@H](O)[C@H]3O)c2n1` [(4S,2R,3R,5R)-2-{2-[2-hex-1-ynyl-6-methoxyamino)purin-9-yl}-5-(hydroxymethyl)oxolane-3,4-diol] gave a Ki [1] of 681 pM.

`CONc1nc(C#Cc2ccccc2)nc2c1ncn2[C@@H]1O[C@H](CO)[C@@H](O)[C@H]1O` [Example 6A, (4S,2R,3R,5R)-5-(hydroxymethyl)-2-[6-(methoxyamino)-2-(2-phenylethynyl)purin-9-yl]oxolane-3,4-diol] gave a melting point of 175 to 177 °C.
